Measurements as given in publication PMC3954831, “Protection of Cardiomyocytes from the Hypoxia-Mediated Injury by a Peptide Targeting the Activator of G-Protein Signaling 8” (PLoS ONE, 2014).

Tests used:
[1] = test system: connexin 43 (CX43) of cultured cardiomyocytes; settings: gallein 100 µM; ref [13]; cited from earlier work
Excerpt: Gallein is an inhibitor of Gβγ-mediated signaling that occupies a “common” interaction surface of Gβγ and inhibits the interaction of Gβγ-regulated proteins with Gβγ [25]. Thus, gallein is expected to block a wide range of Gβγ signals in cells, including CX43 regulation mediated by AGS-Gβγ. We previously demonst ...

[2] = test system: cardiomyocytes; assay: MTT assay, viability of cardiomyocytes; type: cell-based, Wistar rat
Protocol: Cardiomyocytes in 24-well culture plates were incubated in PBS (pH 7.4) containing 0.5 mg/ml MTT at 37°C. After for 2 h incubation, the PBS was removed and 100 µl of dimethyl sulfoxide (DMSO) was added to each well to solubilize dark blue formazan products. Absorbance of the colored solution was determined at 595 nm.
Here, we first examined the influence of the AGS8-peptide and gallein on the viability of cells. Cardiomyocytes were incubated with gallein for 24 h, and their viability was determined by MTT assay.
Figure 7 Effect of AGS8-peptide or Gallein on the viability of cardiomyocytes determined by MTT assay. Neonatal cardiomyocytes were cultured for 24-peptide or Gallein. […] N = 5 from 5 independent experiments.

SMILES: O=C1OC2(c3ccccc31)c1ccc(O)c(O)c1Oc1c2ccc(O)c1O [gallein]
- inhibition of hypoxia-induced internalization of CX43 [1]: completely inhibits hypoxia-induced internalization of CX43
- cytotoxicity / viability of cardiomyocytes ([2]; MTT assay, 1 µM, 24 h, N = 5 independent experiments): caused damage in the cardiomyocytes
- cytotoxicity under normoxia ([2]; normoxia): produced deleterious effects
